# Tested on: proteasome CT-L activity
# Assay: Proteasome CT-L inhibition in blood of mice one hour after oral dosing
# Assay type: in vivo
# Conditions: 20 mg/kg PO, one hour post-dosing, blood lysate, substrate LLVY-AMC, relative to vehicle-dosed cohort
# Procedure: Compounds were formulated in 10% PS80/NaCitrate (pH 3) vehicle and administered to mice orally (PO) (3 animals/cohort). One hour post-dosing, the animals were sacrificed and the following tissues harvested: blood, brain, adrenal gland, heart and liver. Whole blood (˜200 μl) was washed twice with PBS and lysed by hypotonic shock (300 μl 50 mM Tris pH 8, 5 mM EDTA). Blood lysates were stored at −80° C. until assayed. Blood lysates were clarified by centrifugation in a microcentrifuge. The CT-L specific activity of proteasome in each lysate was evaluated by determining: a) the protein concentration by modified Bradford assay with bovine gamma globulin as a standard; and b) the rate of cleavage of the fluorogenic proteasome substrate LLVY-AMC. The percent proteasome activity for the analog-treated animals was calculated by dividing of the average specific activity for each analog-dosed cohort by the average specific activity of the vehicle-dosed cohort. Percent proteasome inhibition was calculated by subtracting percent proteasome activity from 100. Equivalents
row,SMILES,proteasome CT-L inhibition
1,COC[C@H](NC(=O)c1cc(C)no1)C(=O)N[C@@H](COC)C(=O)N[C@@H](CC(C)C)C(=O)[C@@]1(C)CO1 [Compound 085],> 50%
2,COC[C@H](NC(=O)c1cc(C)on1)C(=O)N[C@@H](Cc1cscn1)C(=O)N[C@@H](CC(C)C)C(=O)[C@@]1(C)CO1 [Compound 039],> 75%
3,Cc1cc(C(=O)N[C@@H](Cc2ccccn2)C(=O)N[C@@H](Cc2ccccc2)C(=O)N[C@@H](CC(C)C)C(=O)[C@@]2(C)CO2)no1 [Compound 055],> 80%
4,COC[C@H](NC(=O)c1cc(C)on1)C(=O)N[C@@H](C)C(=O)N[C@@H](CC(C)C)C(=O)[C@@]1(C)CO1 [Compound 045],> 80%
5,COC[C@H](NC(=O)c1cc(C)on1)C(=O)N[C@H](C(=O)N[C@@H](CC(C)C)C(=O)[C@@]1(C)CO1)C(C)C [Compound 029],> 70%
6,COC[C@H](NC(=O)c1ccon1)C(=O)N[C@@H](COC)C(=O)N[C@@H](CC(C)C)C(=O)[C@@]1(C)CO1 [Compound 083],> 80%
7,COC[C@H](NC(=O)c1cc(C)on1)C(=O)N[C@@H](COC)C(=O)N[C@@H](CC(C)C)C(=O)[C@@]1(C)CO1 [Compound 075],> 80%
8,COC[C@H](NC(=O)c1cc(C)on1)C(=O)N[C@@H](COC)C(=O)N[C@@H](Cc1ccc(F)cc1)C(=O)[C@@]1(C)CO1 [Compound 091],> 80%
9,COC[C@H](NC(=O)c1cc(C)on1)C(=O)N[C@@H](COC)C(=O)N[C@@H](Cc1ccccc1)C(=O)[C@@]1(C)CO1 [Compound 088],> 80%

# Same assay, conditions: 40 mg/kg PO, one hour post-dosing, blood lysate, substrate LLVY-AMC, relative to vehicle-dosed cohort
row,SMILES,proteasome CT-L inhibition
1,COCC[C@H](NC(=O)c1cc(C(C)C)on1)C(=O)N[C@@H](Cc1ccccc1)C(=O)N[C@@H](CC(C)C)C(=O)[C@@]1(C)CO1 [Compound 068],> 70%
2,CC(C)C[C@H](NC(=O)c1cc(CN2CCOCC2)on1)C(=O)N[C@@H](Cc1ccccc1)C(=O)N[C@@H](CC(C)C)C(=O)[C@@]1(C)CO1 [Compound 023],> 80%
3,CC(C)C[C@H](NC(=O)c1cc(CN2CCOCC2)on1)C(=O)N[C@@H](Cc1cscn1)C(=O)N[C@@H](CC(C)C)C(=O)[C@@]1(C)CO1 [Compound 035],> 90%
4,CC(C)C[C@H](NC(=O)[C@H](Cc1ccccc1)NC(=O)[C@@H](NC(=O)c1cc(CN2CCOCC2)on1)C(C)C)C(=O)[C@@]1(C)CO1 [Compound 061],> 80%
5,COC[C@H](NC(=O)c1cc(C)on1)C(=O)N[C@@H](Cc1ccccc1)C(=O)N[C@@H](CC(C)C)C(=O)[C@@]1(C)CO1 [Compound 010],> 90%

# Source: patent US7687456B2, “Compounds for enzyme inhibition” (Proteolix, Inc., priority 2005, dated 2010)
